Results as given in patent US20250059232A1, “PENTAPEPTIDE AND USE THEREOF” (ENSOL BIOSCIENCES INC., priority 2021, published 2025).

What was measured:
A549 = A549 cell viability (CCK-8) in NK92 co-culture with anti-PD-L1; format: cell-based, human; details: 300 uM with 10 ug/ml anti-PD-L1, 24/48 hours of co-culturing
Procedure: The experiment described below was performed to evaluate the tumor cell proliferation inhibitory effect of the combination treatment of the peptide of Example 1 and the anti-PD-L1, which is an immune checkpoint inhibitor. First, 5×10^3 cells of a human prostate cancer cell line PC3, 5×10^3 cells of a human lung cancer cell line A549 (Korean Cell Line Bank), and 1×10^4 cells of a human triple negative breast cancer cell line MDA-MB-231 (ATCC) were seeded in 96 wells and stabilized by culturing overnight. Then, the seeded cells were treated with 10 ug/ml of the anti-PD-L1 and 300 uM of the peptide of Example 1, for each condition while NK92 cells for 5×10^3 cells of each of the PC3 cell line and the MDA-MB-231 cell line and 2.5×10^3 cells of the A549 cell line were additionally seeded. After 24/48/72 hours of co-culturing (for PC3 and MDA-MB-231) and 24/48 hours of co-culturing (for A549), the NK92 cells were removed by washing, and the cancer cell viability was measured by CCK-8 addition. FIG. 15 is a graph illustrating the changes in PC3 cell viability over culturing time for each test group in an anticancer effect evaluation test. In FIG. 15, the x-axis represents culturing time and the y-axis represents cell viability (%). FIG. 16 is a graph illustrating the changes in A549 cell viability over culturing time for each test group in an anticancer effect evaluation test. […]

EL4 = EL4 cell viability (CCK-8) with doxorubicin; format: cell-based, mouse; details: 300 uM with doxorubicin 20 nM; 24 hours; p<0.05
Procedure: In order to investigate the cell viability by the combined administration of doxorubicin and the peptide of Example 1 compared to the group administered with only doxorubicin, which is an anticancer chemotherapeutic agent, experiments described below were conducted. 8×10^3 Cells of the mouse lymphoma cell line EL4 (ATCC) were seeded in 96 wells, which then were treated with doxorubicin 20 nM and peptide 300 uM of Example 1 for each condition. After 24 hours of culturing, the cell viability of the EL4 cells was measured by CCK-8 addition. FIG. 11 is a graph illustrating the changes in EL4 cell viability over culturing time in an anticancer effect evaluation test. In FIG. 11, the x-axis represents culturing time and the y-axis represents cell viability (%).

[1] = 4-week repeated subcutaneous toxicity and toxicokinetic test in beagle dogs; format: in vivo, beagle dog
Procedure: In addition, 3 female and male beagle dogs were used per group to repeatedly subcutaneously administer the pentapeptide of Example 1 at doses of 40, 120, 400 mg/kg for 4 weeks daily. During the test period, general symptom observation, weight and feed intake measurements, ophthalmological examination, electrocardiogram, urinalysis, hematology and clinical biochemistry test, and toxicokinetic examination were performed. In addition, organ weight measurements, visual inspection, and histopathological examination of autopsy subjects were performed. […] Thus, the NOAEL (No Observed Adverse Effect Level) of the pentapeptide of Example 1 for female and male beagle dogs under the presented test conditions is determined to be 400 mg/kg/day.

PC3 = PC3 cell viability (CCK-8) in NK92 co-culture with anti-PD-1; format: cell-based, human; details: 100 or 300 uM with 10 μg/ml anti-PD-1, 48/72 hours, P<0.05
Procedure: The experiment described below was performed to evaluate the tumor cell proliferation inhibitory effect of the combination treatment of the peptide of Example 1 and anti-PD-1, which is another immune checkpoint inhibitor. First, 5×10^3 cells of a human prostate cancer cell line PC3 were seeded in 96 wells and stabilized by culturing overnight. Next, 5×10^3 NK92 cells were additionally seeded, and the test cells were treated with 10 μg/ml of the anti-PD-1 and 100 or 300 uM of the peptide of Example 1 for each condition. After 48/72 hours of co-culturing, the NK92 cells were removed by washing, and the cell viability of the PC3 cells was measured by CCK-8 addition. FIG. 18 is a graph illustrating changes in PC3 cell viability over culturing time for each test group in an anticancer effect evaluation test. In FIG. 18, the x-axis represents culturing time and the y-axis represents cell viability (%).

MDA-MB-231 = MDA-MB-231 fat pad xenograft in athymic nude mouse: tumor volume and weight; format: in vivo, human
Procedure: 5×10^6 cells/head of the human triple negative breast cancer cell line MDA-MB-231 (American Type Culture Collection (ATCC)) were mixed with Matrigel and PBS (1:1). 100 ul of the mixture was injected into the right third fat pad of 7-week-old female athymic nude mouse. After the transplantation, drug administration started from an average tumor size of 80 mm^3. Paclitaxel 20 mg/kg was administered on Day 0 and on Day 1. That is, the paclitaxel 20 mg/kg was administered a total of two times. Then, the peptide of Example 1 was administered in a dose of 100 mg/kg on Day 2, Day 4, and Day 6. That is, the peptide of Example 1 was administered a total of three times. Tumor volumes were measured 3 times a week for 3 weeks after administration of the first dose. Tumor weights were measured by necropsy after the end of the experiment. For each group, ten mice were used.
Tumor volume changes over time for each group are shown in FIG. 8, and tumor weight on the eighteenth day after the administration of the first dose for each group is shown in FIG. 9. FIG. 8 is a graph illustrating the changes in tumor volume over time after sample administration in animal experimentation. In FIG. 8, the x-axis represents the number of days elapsed after the start of administration and the y-axis represents the tumor volume change (mm^3). FIG. 9 is a graph illustrating a tumor weight for each test group in animal experimentation. In FIG. 9, the x-axis represents test groups and the y-axis represents tumor weights (mg).

[2] = 40, 120, 400 mg/kg subcutaneous daily for 4 weeks
[3] = 100 mg/kg co-administered with paclitaxel, eighteenth day after first dose

For Ac-QLHLD-OH [Example 1, acetyl-QLHLD], the “Cancer cell viability compared to the group treated with only anti-PD-L1” value (A549) was “significant decrease in cancer cell viability”, the “Cancer cell viability compared to the group treated with only doxorubicin” value (EL4) was “significant decrease in cancer cell viability” and the “Abnormalities (body weight, feed intake, ophthalmic examination, electrocardiogram, urinalysis, hematology, clinical biochemistry, necropsy, organ weight)” value [1, 2] was “No abnormalities”. The Deaths [1, 2] was “no deaths were observed”, the “Systemic exposure (AUClast, Cmax), dose dependence” value ([1]; Day 1 and Day 28, 40, 120, 400 mg/kg) was “approximately proportionally increased with increase in the dose” and the Accumulation ([1]; Day 1 vs Day 28) was “no pentapeptide accumulation”. For the same substance, the NOAEL at 4 weeks ([1]; both sexes, dog, in vivo, sc, female and male, subcutaneous, daily for 4 weeks, read-out: NOAEL (No Observed Adverse Effect Level)) was 400 mg/kg/day, the “Cancer cell viability compared to the checkpoint-inhibitor-only group” value (PC3) was “significant decrease” and the “CR (mice in which the tumor disappeared)” value (MDA-MB-231; 100 mg/kg Day 2, 4, 6 after paclitaxel 20 mg/kg Day 0 and 1, ten mice) was 20%. The “Reduction in tumor volume compared to control group” value (MDA-MB-231; [3]) was 48%, the “Reduction in tumor weight compared to control group” value (MDA-MB-231; [3]) was 51% and the “Day on which the tumor disappeared” value (MDA-MB-231; co-administered with paclitaxel, two mice) was 14 days. The “Duration of the efficacy of a single-cycle drug treatment” value (MDA-MB-231; combination administration with paclitaxel) was ≤ 2 weeks.
